Experimental data from patent publication US9751832B2, “Selective histone deactylase 6 inhibitors” (H. LEE MOFFITT CANCER CENTER AND RESEARCH INSTITUTE, INC., priority 2013, dated 2017).
Where two headings read alike, the source gives them in different places.

How the values were obtained:
[1] = biological target: HDAC6 (Homo sapiens (Human), UniProt Q9UBN7); experiment: HDAC inhibition assay, HDAC6; type: biochemical
[2] = biological target: HDAC1 (Homo sapiens (Human), UniProt Q13547); experiment: HDAC inhibition assay, HDAC1; type: biochemical
[3] = test system: B16 murine melanoma cells; experiment: B16 melanoma cell growth inhibition assay (MTS); type: cell-based; details: 48 h
Experimental: B16 murine melanoma cells were plated at 5×10^3/well in 96 well flat bottom plates. The following day, media was changed to that containing various concentrations of HDACi or matched DMSO vehicle concentrations diluted in complete medium done in triplicate. […] Briefly, 20 μL of reagent were added per well and incubated at 37° C. for 3 hours.

[4] = test system: melanoma antigens gp100, MART1, TYRP1 and TYRP2; experiment: Expression of tumor antigens in human melanoma cells (qRT-PCR); type: cell-based; details: 48 hours
Experimental: (D) Expression of tumor antigens was measured in human WM164 non-target and HDAC6KD cells. (E) Expression of tumor antigens mart-1 and gp-100 was measured by western blot.

[5] = test system: B16 melanoma; experiment: In vivo B16 melanoma tumor growth in C57BL/6 mice; details: for Tumor growth: 25 mg/kg, intraperitoneal, three times weekly
[6] = test system: acetyl-tubulin and acetyl-histone3 in human melanoma cell lines; experiment: Western blot of HDAC substrate acetylation in human melanoma cell lines; type: cell-based; details: for acetyl-tubulin and acetylation status of Histone 3: WM795 cells, 24 hrs, FIG. 47
Experimental: To confirm the selectivity of isotype specific HDACi, Western blot analysis was performed on the acetylation status of known HDAC substrates including histone H3 and H4, which are known Class I HDAC targets, and α-tubulin, a target for HDAC6. The doses required to impart the anti-proliferative effect coincided with that needed to increase acetylation of the respective HDAC substrates (FIG. 41F-41H). […] Conversely, HDAC6 selective inhibitors (HDAC6i) increase α-tubulin acetylation but not histone acetylation (FIG. 41F).

[7] = test system: acetyl-α-tubulin and acetyl-H3 in B16 melanoma cells; experiment: Tubulin and histone acetylation Western blot assay; type: cell-based, murine
Experimental: […]. B16 melanoma cells were plated at 10^5 cells/well in 12 well plates and allowed to adhere overnight. A 50 mM stock of compound was then added by serial dilutions in complete medium to the indicated concentrations. Cells were incubated for 24 h under humidified conditions (37° C., 5% CO2). Wells were then washed with cold PBS, and cells were lysed in a buffer containing 10 mM Tris-HCl pH 8.0, 10% SDS, […], 100 mM DTT, and 1× protease inhibitor (Roche). Cells were lysed for 30 min on ice and then sonicated for 8 min (8 cycles of 30 s on/30 s rest). Cells were then boiled for 10 min with 6× gel loading buffer and resolved on 4-15% gradient gels and subsequently transferred onto nitrocellulose membranes. Membranes were blocked with 5% milk in PBS-T and detection of specific antigens using antibodies against acetyl-H3 and H3 (Cell Signaling), and acetyl-α-tubulin and α-tubulin (Sigma). Bands were detected by scanning blots with LI-COR Odyssey imaging system using both 700 and 800 channels.

[8] = test system: HuT-78, murine MCL, B16 and SM1 cells; experiment: Cell viability of cancer cells (CellTiter 96 Aqueous ONE); type: cell-based, human and murine; details: 24 hrs, compared to DMSO
Experimental: Human cutaneous T-cell lymphoma (CTCL) HuT-78 (A), murine mantle cell lymphoma (MCL) (B), and murine melanoma B16 (C) and SM1 (D) cells were incubated with JB7-19, JB7-22, JB720 at different concentrations for 24 hrs. Cell viability was measured using CellTiter 96 Aqueous ONE solution (Promega, Madison, Wis.) and compared to DMSO treated control samples. Error bars represent standard deviation from triplicates.

[9] = test system: IL-10 production in PEM and RAW264.7 cells; experiment: IL-10 production in antigen presenting cells (ELISA); type: cell-based, murine; details: 24 hrs
Experimental: Murine peritoneal elicited primary macrophages (PEM)(A) and murine RAW264.7 (B) cells were incubated with JB7-19, JB7-22, JB720 at the concentration indicated on each chart. After 24 hrs, the production of IL-10 was measured by ELISA.

[10] = test system: NRAS and BRAF mutant human melanoma cell lines; experiment: Cell proliferation of human melanoma cell lines (MTS, 24 h); type: cell-based
Experimental: Cell proliferation was evaluated using various pan- and isotype selective HDACi in a broad panel of human melanoma cell lines. Briefly, cells were plated at 10×10^3/well in a 96 well flat bottom plate. The following day, media was changed to that containing different concentrations of HDACi or matched DMSO vehicle concentrations diluted in complete medium done in triplicate, all with a final concentration of less than 0.1% DMSO. Cells were incubated for 24 hours at 37° C. and 5% CO2. […] All values were then normalized and expressed as a percentage of medium control growth.

[11] = test system: human melanoma cell lines; experiment: Cell cycle analysis by propidium iodide staining; type: cell-based; details: FACS
Experimental: Cells were treated with indicated doses of HDAC inhibitors or DMSO control and then trypsinized, washed, and rendered into a single cell suspension in 1 mL of DPBS. 4 mL ice cold 200 proof ethyl alcohol was added dropwise while vortexing to fix cells. Samples were washed and resuspended in 75% ethanol solution overnight. Then, cells were washed in PBS+0.1% Triton X-100 and counted. Equal numbers of cells were then stained in a solution containing 10 μg/mL RNAseA+1 μg/mL propidium iodide for 2 hours at room temperature. Data was then acquired using a FACSCaliber with at least 10,000 events collected. Cell cycle analysis was completed using ModFit LT (Verity Software House, Topsham, Me.).

[12] = test system: antigen-specific T-cells; experiment: In vivo antigen-specific T-cell response to vaccination; set-up: species or system mice; details: in vivo treatment
[13] = test system: JAK2/STAT3 phosphorylation in B16 murine melanoma cells; experiment: JAK2/STAT3 phosphorylation in B16 melanoma in vivo
[14] = test system: MCL; experiment: In vivo treatment of MCL-bearing mice
[15] = test system: macrophages; experiment: Tubastatin A treatment of macrophages (APCs) in vitro; type: cell-based
[16] = test system: STAT3 phosphorylation in APCs; experiment: STAT3 phosphorylation and recruitment to the IL-10 gene promotor in APCs; type: cell-based
[17] = test system: MHC expression on melanoma cells; experiment: Surface marker analysis of melanoma cells by flow cytometry; type: cell-based, human and murine; details: 3 μM, 48 hours, B16 and WM793
Experimental: For surface marker analysis melanoma cells were treated with TubastatinA or DMSO for 48 hrs, and/or using Non target and HDAC6KD cell lines, Cells were singly stained with phycoerythryn (PE) conjugated antibodies against MHC I, MHC II, CD40, CD80, CD86. Conjugated antibodies were purchases from eBioscience (San Diego, Calif., USA). After staining for 30 minutes at 4° C., cells were washed three times and then resuspended in buffer containing DAPI (50 ng/mL) for viability. At least 10,000 events were collected using an LSR II (BD) and subsequently analyzed using FlowJo software.2.2.7.

[18] = test system: B16 WT melanoma; experiment: In vivo B16 melanoma tumor growth in SCID mice
From the text: To further characterize the relative contribution of anti-tumor immunity, specific subsets of cells were depleted via antibody depletion, which was confirmed by staining leukocytes from spleen. […] Taken together, these observations support the anti-melanoma activity of a functional immune system after HDAC6 inhibition.

[19] = Table 2, cyclic urea compounds, read-out: HDAC6 IC50
[20] = Table 2, cyclic urea compounds, read-out: HDAC1 IC50
[21] = Table 1B, read-out: IC50 (μM) HDAC6
[22] = Table 1B, read-out: IC50 (μM) HDAC1

HDAC6, sequence (Q9UBN7 whole entry): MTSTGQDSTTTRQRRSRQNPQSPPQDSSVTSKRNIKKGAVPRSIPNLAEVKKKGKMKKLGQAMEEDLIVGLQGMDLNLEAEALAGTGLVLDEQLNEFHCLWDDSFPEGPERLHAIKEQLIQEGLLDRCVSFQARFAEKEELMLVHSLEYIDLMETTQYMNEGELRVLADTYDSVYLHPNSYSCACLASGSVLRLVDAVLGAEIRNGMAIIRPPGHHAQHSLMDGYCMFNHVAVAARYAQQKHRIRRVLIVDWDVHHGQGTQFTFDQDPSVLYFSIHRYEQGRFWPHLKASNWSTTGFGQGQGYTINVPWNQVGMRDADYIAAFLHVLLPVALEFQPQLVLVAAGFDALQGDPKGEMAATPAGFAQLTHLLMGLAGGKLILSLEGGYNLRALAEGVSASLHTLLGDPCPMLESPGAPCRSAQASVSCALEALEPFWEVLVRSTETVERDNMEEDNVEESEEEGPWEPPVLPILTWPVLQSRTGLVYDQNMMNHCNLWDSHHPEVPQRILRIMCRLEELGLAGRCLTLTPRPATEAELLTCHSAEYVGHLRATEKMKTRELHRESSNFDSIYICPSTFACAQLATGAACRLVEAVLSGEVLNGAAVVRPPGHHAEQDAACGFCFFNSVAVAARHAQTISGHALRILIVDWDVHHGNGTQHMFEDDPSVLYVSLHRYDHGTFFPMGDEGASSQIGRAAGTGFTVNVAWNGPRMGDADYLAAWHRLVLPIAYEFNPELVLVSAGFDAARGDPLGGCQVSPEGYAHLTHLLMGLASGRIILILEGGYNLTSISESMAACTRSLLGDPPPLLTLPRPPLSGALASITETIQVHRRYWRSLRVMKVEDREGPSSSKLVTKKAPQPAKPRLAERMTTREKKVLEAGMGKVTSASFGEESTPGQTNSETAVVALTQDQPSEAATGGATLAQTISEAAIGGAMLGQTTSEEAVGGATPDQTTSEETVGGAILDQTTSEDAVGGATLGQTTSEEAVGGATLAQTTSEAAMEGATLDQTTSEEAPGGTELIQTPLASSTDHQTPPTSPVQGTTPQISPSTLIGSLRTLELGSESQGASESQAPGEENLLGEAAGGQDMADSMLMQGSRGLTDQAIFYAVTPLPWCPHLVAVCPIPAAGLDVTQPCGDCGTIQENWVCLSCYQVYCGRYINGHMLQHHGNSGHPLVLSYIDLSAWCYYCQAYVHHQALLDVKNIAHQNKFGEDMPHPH
HDAC1, sequence (Q13547 whole entry): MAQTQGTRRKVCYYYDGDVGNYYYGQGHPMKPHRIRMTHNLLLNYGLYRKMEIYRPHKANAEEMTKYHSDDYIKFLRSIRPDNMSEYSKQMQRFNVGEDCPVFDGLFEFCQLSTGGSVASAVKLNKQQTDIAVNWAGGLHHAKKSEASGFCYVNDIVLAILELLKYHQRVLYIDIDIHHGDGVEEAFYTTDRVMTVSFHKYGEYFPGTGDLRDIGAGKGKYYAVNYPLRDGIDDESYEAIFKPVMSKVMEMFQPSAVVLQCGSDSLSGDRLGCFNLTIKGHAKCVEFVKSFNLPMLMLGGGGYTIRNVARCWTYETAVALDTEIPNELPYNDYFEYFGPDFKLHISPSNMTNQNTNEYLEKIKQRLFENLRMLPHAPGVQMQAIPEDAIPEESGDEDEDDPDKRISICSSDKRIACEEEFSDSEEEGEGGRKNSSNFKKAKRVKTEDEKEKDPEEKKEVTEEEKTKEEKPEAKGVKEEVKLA

COc1ccccc1NC(=O)NCc1ccc(C(N)=O)cc1 [Compound 1] showed an IC50 ([1]; Table 1A, mean of two experiments ± standard deviation, read-out: HDAC6 IC50) of 0.139 ± 0.027 µM and an IC50 ([2]; Table 1A, mean of two experiments ± standard deviation, read-out: HDAC1 IC50) of 0.265 ± 0.059 µM.
For COc1ccccc1NC(=O)N(CCCO)Cc1ccc(C(=O)NO)cc1 [Compound 5b, N-hydroxy-4-((1-(3-hydroxypropyl)-3-(2-methoxyphenyl)ureido)methyl)-benzamide], the “Growth inhibition of B16 melanoma cells (in words)” value (“Growth inhibition” for short) [3] was “performed very poorly”.
With COCCCN(Cc1ccc(C(=O)NO)cc1)C(=O)Nc1ccccc1 [Compound 5e, N-hydroxy-4-((1-(3-methoxypropyl)-3-phenylureido)methyl)benzamide] the “Fold Selective (HDAC1/HDAC6)” value ([1]; Table 1A) was > 400 fold.
With CCCCN(Cc1ccc(C(=O)NO)cc1)C(=O)Nc1ccccc1 [Compound 5g, 4-((1-butyl-3-phenylureido)methyl)-N-hydroxybenzamide] the “Expression of melanoma antigens at the mRNA level” value [4] was “upregulation of melanoma antigens”, the Tumor growth [5] was “delayed tumor growth” and the “acetyl-tubulin and acetylation status of Histone 3” value [6] was “increase acetyl-tubulin without modifying the acetylation status of Histone 3”. The “histone H3 acetylation” value ([7]; concentrations of 1 and 10 μM) was “observable increase”, the “acetyl α-tubulin levels” value ([7]; low nanomolar treatment, 24 h) was “dose-dependant increase” and the “histone H3 acetylation” value ([7]; low nanomolar treatment, 24 h) was “without a concamanent elevation”. The “Growth inhibition” value [3] was “capable of inhibiting the growth”.
In the case of O=C(NO)c1ccc(CN(CCc2ccccc2)C(=O)Nc2ccccc2)cc1 [Compound 5h, N-hydroxy-4-((1-phenethyl-3-phenylureido)methyl)benzamide], the “Growth inhibition” value [3] is reported as “capable of inhibiting the growth”.
For COc1ccccc1N1C(=O)N(Cc2ccc(C(=O)NO)cc2)C(C)(C)C1=O [Compound 10a], the “Fold Selective (HDAC1/HDAC6)” value ([1]; Table 2, cyclic urea compounds) was 386 fold, the IC50 [1, 19] was 0.0742 µM and the IC50 [2, 20] was 28.6 µM.
With CC(C)[C@@H]1C(=O)N(c2ccccc2)C(=O)N1Cc1ccc(C(=O)NO)cc1 [Compound 10b] the “Fold Selective (HDAC1/HDAC6)” value ([1]; Table 2, cyclic urea compounds) was 531 fold, the IC50 [1, 19] was 0.0222 µM and the IC50 [2, 20] was 11.8 µM.
For O=C(NO)c1ccc(CN2C(=O)N[C@@H](Cc3ccccc3)C2=O)cc1 [Compound 11a], the “Fold Selective (HDAC1/HDAC6)” value ([1]; Table 2, cyclic urea compounds) was 295 fold, the IC50 [1, 19] was 0.0256 µM and the IC50 [2, 20] was 7.56 µM.
For CCCCN(Cc1ccc(C(=O)NO)cc1)C(=O)Nc1ncccn1 [JB6-22, 4-((1-butyl-3-(pyrimidin-2-yl)ureido)methyl)-N-hydroxybenzamide], the “Cell proliferation of cancer cells” value [8] was “decrease cell proliferation”, the “acetyl-tubulin and acetylation status of Histone 3” value [6] was “increase acetyl-tubulin without modifying the acetylation status of Histone 3” and the “Selectivity (HDAC1/−6)” value ([1]; Table 1B) was 281. For the same compound, the IC50 [1, 21] was 0.00976 µM, the “IL-10 production in antigen presenting cells” value [9] was “inhibit IL-10 production” and the IC50 [2, 22] was 2.74 µM.
CCCCN(Cc1ccc(C(=O)NO)cc1)C(=O)Nc1ccc2cn[nH]c2c1 [JB7-19, 4-((1-butyl-3-(1H-indazol-6-yl)ureido)methyl)-N-hydroxybenzamide] was tested, and the “Cell proliferation of cancer cells” value [8] was “decrease cell proliferation”, the “acetyl-tubulin and acetylation status of Histone 3” value [6] was “increase acetyl-tubulin without modifying the acetylation status of Histone 3” and the “Selectivity (HDAC1/−6)” value ([1]; Table 1B) was 284. The IC50 [1, 21] was 0.00254 µM, the “IL-10 production in antigen presenting cells” value [9] was “inhibit IL-10 production” and the IC50 [2, 22] was 0.721 µM.
In the case of CCCCN(Cc1ccc(C(=O)NO)cc1)C(=O)Nc1cccc(N(C)C)c1 [JB7-20], the “Selectivity (HDAC1/−6)” value ([1]; Table 1B) is reported as 99.
Nc1ccccc1NC(=O)c1ccc(CNc2nccc(-c3cccnc3)n2)cc1 [MGCD0103] was tested, and the “Inhibition of proliferation, effective concentration range (in words)” value [10] was “low micromolar range”, the “acetylation of α-tubulin” value ([6]; Western blot, FIG. 41) was “unchanged” and the Cell cycle effects [11] was “variable cell cycle effects”.
For CN1CCc2c(c3ccccc3n2Cc2ccc(C(=O)NO)cc2)C1 [Tubastatin A], the “Inhibition of proliferation, effective concentration range (in words)” value [10] was “low micromolar range”, the “Antigen-specific T-cell responses to vaccination” value [12] was “enhances antigen-specific T-cell responses” and the “Expression of melanoma antigens at the mRNA level” value [4] was “upregulation of melanoma antigens”. For the same compound, the Tumor growth [5] was “delayed tumor growth”, the “Anti-melanoma effect in vivo” value ([5]; alone or in combination with anti-CLTA4) was “anti-melanoma effect” and the “acetyl-tubulin and acetylation status of Histone 3” value [6] was “increase acetyl-tubulin without modifying the acetylation status of Histone 3”. For the same compound, the JAK2/STAT3 phosphorylation [13] was “inhibits JAK2/STAT3 phosphorylation”, the Antitumor effect [14] was “strong antitumor effect” and the “T-cell activation by treated macrophages” value ([15]; in vitro) was “better activators of naIve T-cells”. For the same compound, the “Expression of co-stimulatory molecules” value ([15]; macrophages) was “increased the expression of co-stimulatory molecules”, the IL-10 production ([15]; macrophages) was “inhibits IL-10 production” and the STAT3 phosphorylation [16] was “decreased STAT3 phosphorylation”. For the same compound, the “Expression of MHC I” value [17] was “increase of MHC1”.
Nexturastat B was tested, and the “In vivo growth of B16 WT melanoma compared with control treatment” value [18] was “not significantly different”.
